In ChEMBL document CHEMBL3045228, “QSAR study of a series of acyl coenzyme A (CoA): cholesterol acyltransferase inhibitors using genetic function approximation” (Med Chem Res, 2011):

Assay: Inhibition of Acyl-coenzyme A:cholesterol acyltransferase (unknown origin) assessed as intracellular cholesterol esterification by cell based assay
Conditions: Homo sapiens; read-out: IC50

IC50 | Structure (SMILES)
550 nM | CCCCCC(C)N(Cc1ccc(OCC(C)C)cc1)C(Nc1ccc(OC)cc1OC)=C1C(=O)OC(C)(C)OC1=O (stereo unspecified)
900 nM | COc1ccc(NC(NCCCCCCCCc2ccc(C(C)(C)C)cc2)=C2C(=O)OC(C)(C)OC2=O)c(OC)c1
260 nM | COc1ccc(NC(NCc2ccc(C(C)(C)C)cc2)=C2C(=O)OC(C)(C)OC2=O)c(OC)c1
830 nM | CCCCCC(C)N(Cc1ccc(CC(C)(C)C)cc1)C(Nc1ccc(OC)cc1OC)=C1C(=O)OC(C)(C)OC1=O (stereo unspecified)
290 nM | COc1ccc(NC(=C2C(=O)OC(C)(C)OC2=O)N(Cc2ccc(CC(C)(C)C)cc2)CC2CCCC2c2ccccc2)c(OC)c1 (stereo unspecified)
2800 nM | COc1ccc(NC(NCCc2ccccc2)=C2C(=O)OC(C)(C)OC2=O)c(OC)c1
840 nM | CCCCCc1ccc(CCCCCCCCNC(Nc2ccc(OC)cc2OC)=C2C(=O)OC(C)(C)OC2=O)cc1
980 nM | Cc1cc(N(C)C)cc(C)c1NC(NCCCCCCCCc1ccc(C(C)(C)C)cc1)=C1C(=O)OC(C)(C)OC1=O
770 nM | CCCCCC(C)N(Cc1ccc(C(C)(C)C)cc1)C(Nc1cc(OC)c(OC)c(OC)c1)=C1C(=O)OC(C)(C)OC1=O (stereo unspecified)
250 nM | CCCCCC(C)N(Cc1ccc(C(C)(C)C)cc1)C(Nc1ccc(N(C)C)cc1)=C1C(=O)OC(C)(C)OC1=O (stereo unspecified)
370 nM | CC(C)CCOc1ccc(CCCCCCCCNC(Nc2ccc(N(C)C)cc2)=C2C(=O)OC(C)(C)OC2=O)cc1
500 nM | CCCCCCOc1ccc(NC(NCCCCCCCCc2ccc(C(C)(C)C)cc2)=C2C(=O)OC(C)(C)OC2=O)cc1
920 nM | CC1(C)OC(=O)C(=C(NCCCCCCCCc2ccc(C(C)(C)C)cc2)Nc2ccc(Oc3ccccc3)cc2)C(=O)O1
230 nM | CCCCCC(C)N(Cc1ccc(C(C)(C)C)cc1)C(Nc1ccc(OCCCC)cc1)=C1C(=O)OC(C)(C)OC1=O (stereo unspecified)
910 nM | COc1ccc(NC(NCCCCCCCCc2ccc(CC(C)C)cc2)=C2C(=O)OC(C)(C)OC2=O)c(OC)c1
240 nM | CCCCCC(C)N(Cc1ccc(CC(C)C)cc1)C(Nc1ccc(OC)cc1OC)=C1C(=O)OC(C)(C)OC1=O (stereo unspecified)
380 nM | CCCCCC(C)N(Cc1ccc(CC(C)(C)C)cc1)C(Nc1c(C)cc(N(C)C)cc1C)=C1C(=O)OC(C)(C)OC1=O (stereo unspecified)
540 nM | CCCCCC(C)N(Cc1ccc(OC(C)CCC)cc1)C(Nc1ccc(OC)cc1OC)=C1C(=O)OC(C)(C)OC1=O (stereo unspecified)
44 nM | CCCCCCC(CCCCCC)N(Cc1ccc(CC(C)C)cc1)C(Nc1ccc(N(C)C)cc1)=C1C(=O)OC(C)(C)OC1=O
210 nM | CCCCCC(C)N(Cc1ccc(OCCC(C)C)cc1)C(Nc1ccc(N(C)C)cc1)=C1C(=O)OC(C)(C)OC1=O (stereo unspecified)
370 nM | COc1ccc(NC(=C2C(=O)OC(C)(C)OC2=O)N(Cc2ccc(CC(C)C)cc2)C(C)CCCC(C)C)c(OC)c1 (stereo unspecified)
360 nM | CCCCCc1ccc(CN(C(Nc2ccc(OC)cc2OC)=C2C(=O)OC(C)(C)OC2=O)C(C)CCCCC)cc1 (stereo unspecified)
260 nM | CCCCCc1ccc(CN(C(Nc2ccc(N(C)C)cc2)=C2C(=O)OC(C)(C)OC2=O)C(C)CCCCC)cc1 (stereo unspecified)

Same assay, conditions: Homo sapiens; read-out: pIC50 (converted)

IC50 | Structure (SMILES)
550 nM | CCCCCC(C)N(Cc1ccc(OCC(C)C)cc1)C(Nc1ccc(OC)cc1OC)=C1C(=O)OC(C)(C)OC1=O (stereo unspecified)
899 nM | COc1ccc(NC(NCCCCCCCCc2ccc(C(C)(C)C)cc2)=C2C(=O)OC(C)(C)OC2=O)c(OC)c1
260 nM | COc1ccc(NC(NCc2ccc(C(C)(C)C)cc2)=C2C(=O)OC(C)(C)OC2=O)c(OC)c1
830 nM | CCCCCC(C)N(Cc1ccc(CC(C)(C)C)cc1)C(Nc1ccc(OC)cc1OC)=C1C(=O)OC(C)(C)OC1=O (stereo unspecified)
290 nM | COc1ccc(NC(=C2C(=O)OC(C)(C)OC2=O)N(Cc2ccc(CC(C)(C)C)cc2)CC2CCCC2c2ccccc2)c(OC)c1 (stereo unspecified)
2800 nM | COc1ccc(NC(NCCc2ccccc2)=C2C(=O)OC(C)(C)OC2=O)c(OC)c1
839 nM | CCCCCc1ccc(CCCCCCCCNC(Nc2ccc(OC)cc2OC)=C2C(=O)OC(C)(C)OC2=O)cc1
979 nM | Cc1cc(N(C)C)cc(C)c1NC(NCCCCCCCCc1ccc(C(C)(C)C)cc1)=C1C(=O)OC(C)(C)OC1=O
769 nM | CCCCCC(C)N(Cc1ccc(C(C)(C)C)cc1)C(Nc1cc(OC)c(OC)c(OC)c1)=C1C(=O)OC(C)(C)OC1=O (stereo unspecified)
250 nM | CCCCCC(C)N(Cc1ccc(C(C)(C)C)cc1)C(Nc1ccc(N(C)C)cc1)=C1C(=O)OC(C)(C)OC1=O (stereo unspecified)
370 nM | CC(C)CCOc1ccc(CCCCCCCCNC(Nc2ccc(N(C)C)cc2)=C2C(=O)OC(C)(C)OC2=O)cc1
500 nM | CCCCCCOc1ccc(NC(NCCCCCCCCc2ccc(C(C)(C)C)cc2)=C2C(=O)OC(C)(C)OC2=O)cc1
920 nM | CC1(C)OC(=O)C(=C(NCCCCCCCCc2ccc(C(C)(C)C)cc2)Nc2ccc(Oc3ccccc3)cc2)C(=O)O1
230 nM | CCCCCC(C)N(Cc1ccc(C(C)(C)C)cc1)C(Nc1ccc(OCCCC)cc1)=C1C(=O)OC(C)(C)OC1=O (stereo unspecified)
910 nM | COc1ccc(NC(NCCCCCCCCc2ccc(CC(C)C)cc2)=C2C(=O)OC(C)(C)OC2=O)c(OC)c1
240 nM | CCCCCC(C)N(Cc1ccc(CC(C)C)cc1)C(Nc1ccc(OC)cc1OC)=C1C(=O)OC(C)(C)OC1=O (stereo unspecified)
380 nM | CCCCCC(C)N(Cc1ccc(CC(C)(C)C)cc1)C(Nc1c(C)cc(N(C)C)cc1C)=C1C(=O)OC(C)(C)OC1=O (stereo unspecified)
540 nM | CCCCCC(C)N(Cc1ccc(OC(C)CCC)cc1)C(Nc1ccc(OC)cc1OC)=C1C(=O)OC(C)(C)OC1=O (stereo unspecified)
44 nM | CCCCCCC(CCCCCC)N(Cc1ccc(CC(C)C)cc1)C(Nc1ccc(N(C)C)cc1)=C1C(=O)OC(C)(C)OC1=O
210 nM | CCCCCC(C)N(Cc1ccc(OCCC(C)C)cc1)C(Nc1ccc(N(C)C)cc1)=C1C(=O)OC(C)(C)OC1=O (stereo unspecified)
370 nM | COc1ccc(NC(=C2C(=O)OC(C)(C)OC2=O)N(Cc2ccc(CC(C)C)cc2)C(C)CCCC(C)C)c(OC)c1 (stereo unspecified)
360 nM | CCCCCc1ccc(CN(C(Nc2ccc(OC)cc2OC)=C2C(=O)OC(C)(C)OC2=O)C(C)CCCCC)cc1 (stereo unspecified)
260 nM | CCCCCc1ccc(CN(C(Nc2ccc(N(C)C)cc2)=C2C(=O)OC(C)(C)OC2=O)C(C)CCCCC)cc1 (stereo unspecified)
